Consider 7 molecules from paper PMC11249646, “Small-Molecule Disruptors of the Interaction between Calcium- and Integrin-Binding Protein 1 and Integrin αIIbβ3 as Novel Antiplatelet Agents” (ACS Pharmacology & Translational Science, 2024).

What all share (format): binding
The target of test [1] is T1, CIB1 and αIIb interaction (GST-CIB1 : F-αIIb peptide) (Homo sapiens, UniProt Q99828).
T1 construct: made in house; host or cells: BL-21 plus RIL cells (E. coli)
T1 sequence (Q99828 1-191): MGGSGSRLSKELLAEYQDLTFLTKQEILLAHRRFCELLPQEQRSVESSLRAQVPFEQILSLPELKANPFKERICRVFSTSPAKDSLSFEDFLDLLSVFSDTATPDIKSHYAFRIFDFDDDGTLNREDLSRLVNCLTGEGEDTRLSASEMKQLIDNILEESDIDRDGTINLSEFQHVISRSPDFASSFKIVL
Description: FP assay, 384-well format (screen). The arrangement: 384-well SCREEN Efficacy (%): concentration or dose not given beside the values. The settings on record: for pIC50: read-out: 384-well SCREEN IC50.

The target in test [2] is T2, GST-CIB1 : F-scrambled peptide (Homo sapiens, UniProt Q99828).
T2 construct: made in house; host or cells: BL-21 plus RIL cells (E. coli)
T2 sequence (Q99828 1-191): T1 sequence (Q99828 1-191)
Description: FP scrambled-peptide counter screen, 1536-well format. The settings on record: scrambled-peptide counterscreen; for COUNTERSCREEN Confirm?: YES/NO call; for COUNTERSCREEN Curve Class: qHTS curve class; for pIC50: read-out: COUNTERSCREEN IC50.

The target in test [3] is T2, GST-CIB1 : F-scrambled peptide. Description: FP scrambled-peptide counter screen, 384-well format. Conditions: for pIC50: read-out: 384-well COUNTERSCREEN IC50. On the technique in general: A counterscreen serves to expose hits that act by an unwanted route or on another target.
The target in test [4] is T3, CIB1 and αIIb interaction (CIB1-GST : F-αIIb peptide) (Homo sapiens, UniProt Q99828).
T3 construct: made in house; host or cells: BL-21 plus RIL cells (E. coli)
T3 sequence (Q99828 1-191): T1 sequence (Q99828 1-191)
Description: FP assay, 1536-well qHTS format (primary and confirmatory screen). Conditions: for CONFIRMATORY SCREEN Confirm?: YES/NO call; for CONFIRMATORY SCREEN Curve Class: qHTS curve class. (Quantitative high-throughput screening tests each substance at several concentrations.)

The mark [5] stands for this setting: confirmatory screen, negative sign = inhibitory curve.
[6] abbreviates: confirmatory screen, negative = inhibition.
[7] abbreviates: qHTS FP screen hits, Table S2, negative = inhibition.
Where [8] appears, read: qHTS FP screen hits, Table S2, read-out: IC50.
Setting [9] is: qHTS primary screen hits, Table S2, negative = inhibition.
Where [10] appears, read: qHTS primary screen hits, Table S2, negative sign = inhibitory curve, several classes where COUNT > 1.
[11] abbreviates: qHTS primary screen hits, Table S2, read-out: IC50.
Where [12] appears, read: confirmatory screen, read-out: CONFIRMATORY SCREEN IC50.

One may read the pIC50 as the negative decadic logarithm of the IC50, by convention in mol/L.

pIC50: −log10 of the molar value. Read-outs that look alike come from different tables or passages of the source.

Take `CCOC(=O)c1c(NC(=O)C2CC(Cl)=CCC2C(=O)O)sc2c1CCCCC2.O=C(O)C(F)(F)F` (stereo not shown) [NCGC00238648-01]: in test [1] (F-αIIb peptide), the “384-well SCREEN Efficacy (%)” value was 15% and the negative logarithm of the IC50 (pIC50) is less than 3.92. In test [2], the “COUNTERSCREEN Efficacy (%)” value came to 16%, the “COUNTERSCREEN Confirm?” value was “YES” and the “COUNTERSCREEN Curve Class” value is on record as 4. In test [3] (F-scrambled peptide), the “384-well COUNTERSCREEN Efficacy (%)” value worked out at 12% and the pIC50 is less than 3.92. In addition, the “CONFIRMATORY SCREEN Confirm?” value in test [4] (confirmatory screen) is “YES”. In addition, the “CONFIRMATORY SCREEN Curve Class” value in test [4] (setting [5]) is recorded as -2.2. For the same molecule, the “CONFIRMATORY SCREEN Efficacy (%)” value in test [4] (setting [6]) is reported as -59%. In addition, in test [4] (setting [7]), the “Efficacy (%)” value is recorded as -22%. The negative logarithm of the IC50 (pIC50) in test [4] (setting [8]) is 4.45.
As to `N#Cc1cnc(NS(=O)(=O)c2ccc(NC(=O)Cc3ccc(F)c(Cl)c3)cc2)s1.O=C(O)C(F)(F)F` [NCGC00343826-01], in test [1] (F-αIIb peptide), the “384-well SCREEN Efficacy (%)” value came out at 36% and the pIC50 was 5.66. For the same molecule, the “384-well SCREEN Confirm?” value in test [1] (F-αIIb peptide, YES/NO) is “YES”. Further, in test [2], the “COUNTERSCREEN Efficacy (%)” value was 24%, the “COUNTERSCREEN Confirm?” value is “YES” and the “COUNTERSCREEN Curve Class” value was 4. Further, in test [3] (F-scrambled peptide), the “384-well COUNTERSCREEN Efficacy (%)” value is 28% and the pIC50 is less than 3.92. The “384-well COUNTERSCREEN Confirm?” value in test [3] (F-scrambled peptide, *: Curve in opposite direction) is recorded as “YES”. For the same molecule, the “CONFIRMATORY SCREEN Confirm?” value in test [4] (confirmatory screen) is recorded as “YES”. The “CONFIRMATORY SCREEN Curve Class” value in test [4] (setting [5]) was -1.4. Moreover, the “CONFIRMATORY SCREEN Efficacy (%)” value in test [4] (setting [6]) is listed as -50%. In addition, the “Efficacy (%)” value in test [4] (setting [9]) is recorded as -29%. Further, in test [4] (setting [10]), the “Curve Class” value was -1.2. In addition, the pIC50 in test [4] (setting [11]) is 5.55.
In the case of `CCc1nnc(NS(=O)(=O)c2ccc(NC(=S)NC(=O)/C=C/c3ccc(F)cc3)cc2)s1` [NCGC00351476-01], in test [1] (F-αIIb peptide), the “384-well SCREEN Efficacy (%)” value was 30% and the pIC50 was 5.35. The “384-well SCREEN Confirm?” value in test [1] (F-αIIb peptide, YES/NO) is listed as “YES”. For the same molecule, in test [2], the “COUNTERSCREEN Efficacy (%)” value was 57%, the “COUNTERSCREEN Confirm?” value is listed as “YES”, the “COUNTERSCREEN Curve Class” value was determined as 3 and the negative logarithm of the IC50 (pIC50) is 4.15. Moreover, in test [3] (F-scrambled peptide), the “384-well COUNTERSCREEN Efficacy (%)” value is recorded as -30% and the pIC50 was 5.30. For the same molecule, the “CONFIRMATORY SCREEN Confirm?” value in test [4] (confirmatory screen) was “YES”. The “CONFIRMATORY SCREEN Curve Class” value in test [4] (setting [5]) is reported as -1.2. Also, in test [4] (setting [6]), the “CONFIRMATORY SCREEN Efficacy (%)” value is -36%. Also, the pIC50 in test [4] (setting [12]) is 5.05. Besides, the “Efficacy (%)” value in test [4] (setting [7]) is listed as -29%. The “Curve Class” value in test [4] (qHTS FP screen hits, Table S2, one class per curve where COUNT > 1, negative sign = inhibitory curve) is on record as -1.2. In addition, the pIC50 in test [4] (setting [8]) was 5.10.
In the case of `O=[N+]([O-])c1ccc2c(c1)S(=O)(=O)C=C2` [NCGC00167848-02], in test [1], the “384-well SCREEN Confirm?” value is reported as “YES” and the “384-well SCREEN Efficacy (%)” value amounted to 50%. Moreover, in test [1] (F-αIIb peptide), the pIC50 is 3.92. Also, the “384-well COUNTERSCREEN Efficacy (%)” value in test [3] was 45%. Further, in test [3] (F-scrambled peptide), the pIC50 was less than 3.92. Moreover, in test [4], the “Curve Class” value is -1.4 and the “Efficacy (%)” value is recorded as -37%. Also, the pIC50 in test [4] (setting [11]) is 6.15.
For the molecule `Cc1nc(N=Nc2cc(S(=O)(=O)O)c3cc([N+](=O)[O-])cc(S(=O)(=O)O)c3c2)c(COP(=O)(O)O)c(C=O)c1O` (stereo in doubt) [NCGC00162294-03], the “384-well SCREEN Efficacy (%)” value in test [1] (F-αIIb peptide) was 70%. Besides, the “384-well SCREEN Confirm?” value in test [1] (F-αIIb peptide, YES/NO) is reported as “YES”. For the same molecule, the “384-well COUNTERSCREEN Efficacy (%)” value in test [3] (F-scrambled peptide) stood at 70%. The “Efficacy (%)” value in test [4] (setting [9]) was -64%. The “Curve Class” value in test [4] (qHTS primary screen hits, Table S2, negative sign = inhibitory curve) is -1.2.
With `Cc1ccc(Cl)cc1NC(=O)c1nc[nH]c1C(=O)Nc1nc2ccccc2[nH]1` [NCGC00244259-01], in test [1] (F-αIIb peptide), the “384-well SCREEN Efficacy (%)” value is 48% and the pIC50 is 4.95. Further, in test [1] (F-αIIb peptide, YES/NO), the “384-well SCREEN Confirm?” value is recorded as “YES”. Further, in test [2], the “COUNTERSCREEN Efficacy (%)” value is on record as -15%, the “COUNTERSCREEN Confirm?” value was “YES” and the “COUNTERSCREEN Curve Class” value is 4. Further, in test [3] (F-scrambled peptide), the “384-well COUNTERSCREEN Efficacy (%)” value is reported as 48% and the pIC50 is 4.80. Besides, in test [4] (confirmatory screen), the “CONFIRMATORY SCREEN Confirm?” value was “YES”. Further, the “CONFIRMATORY SCREEN Curve Class” value in test [4] (setting [5]) was -1.2. The “CONFIRMATORY SCREEN Efficacy (%)” value in test [4] (setting [6]) was -28%. In test [4] (setting [12]), the pIC50 was 5.10. The “Efficacy (%)” value in test [4] (setting [9]) is recorded as -42%. The “Curve Class” value in test [4] (setting [10]) is -2.2. In addition, in test [4] (setting [11]), the pIC50 was 4.70.
Consider `Cc1cc(SCc2sc(-c3ccc(Cl)c(Cl)c3)nc2C)ccc1OCc1nnn[nH]1.O=C(O)C(F)(F)F` [NCGC00344871-01], for which the “384-well SCREEN Efficacy (%)” value in test [1] (F-αIIb peptide) is 42%. For the same molecule, the pIC50 was less than 3.92 in test [1] (F-αIIb peptide); 4.10 in test [2]; 4.35 in test [3] (F-scrambled peptide); 4.80 in test [4] (setting [12]); 4.75 in test [4] (setting [11]). Also, the “COUNTERSCREEN Efficacy (%)” value in test [2] worked out at 204%. Also, in test [2], the “COUNTERSCREEN Confirm?” value is “YES”. Also, the “384-well COUNTERSCREEN Efficacy (%)” value in test [3] (F-scrambled peptide) turned out to be 167%. The “CONFIRMATORY SCREEN Confirm?” value in test [4] (confirmatory screen) was “YES”. Besides, in test [4] (setting [5]), the “CONFIRMATORY SCREEN Curve Class” value is recorded as -1.2. The “CONFIRMATORY SCREEN Efficacy (%)” value in test [4] (setting [6]) is -63%. The “Efficacy (%)” value in test [4] (setting [9]) is -38%. Further, in test [4] (setting [10]), the “Curve Class” value is given as -1.2.
